Assay results published in the NIST ThermoML archive (doi:10.1021/acs.jced.8b01120).
Numbers after ± are expanded uncertainties.

Test: xn = mol fraction of the nth substance listed
Conditions: 100 kPa, Liquid; for speed of sound: Single path-length method; for mass density: Vibrating tube method

CCCCCOC(C)=O [pentyl ethanoate] + CCCCN(CCCC)CCCC
Conditions	mass density, 293.15 K [kg/m3]	mass density, 298.15 K [kg/m3]	mass density, 303.15 K [kg/m3]	mass density, 308.15 K [kg/m3]	mass density, 313.15 K [kg/m3]	speed of sound, 293.15 K [m/s]	speed of sound, 298.15 K [m/s]	speed of sound, 303.15 K [m/s]	speed of sound, 308.15 K [m/s]	speed of sound, 313.15 K [m/s]
x2 = 0	876.248 ± 2	871.32 ± 2	865.782 ± 2	860.581 ± 2	855.357 ± 2	1243 ± 4.1	1220.7 ± 4.1	1196.8 ± 4.1	1174.2 ± 4.1	1152.3 ± 4.1
x2 = 0.0575	865.692 ± 2	860.668 ± 2	855.073 ± 2	849.94 ± 2	844.475 ± 2	1244.2 ± 4.1	1221.5 ± 4.1	1197.8 ± 4.1	1175.7 ± 4.1	1153.7 ± 4.1
x2 = 0.1106	856.436 ± 2	851.526 ± 2	846.117 ± 2	841.075 ± 2	835.813 ± 2	1245.2 ± 4.1	1222.5 ± 4.1	1198.8 ± 4.1	1177.2 ± 4.1	1155.7 ± 4.1
x2 = 0.2013	842.712 ± 2	837.942 ± 2	832.841 ± 2	827.884 ± 2	823.003 ± 2	1247.7 ± 4.1	1224.3 ± 4.1	1201.8 ± 4.1	1179.7 ± 4.1	1158.8 ± 4.1
x2 = 0.3229	827.693 ± 2	823.116 ± 2	818.312 ± 2	813.425 ± 2	808.951 ± 2	1249.6 ± 4.1	1227.8 ± 4.1	1205.4 ± 4.1	1184.1 ± 4.1	1163.1 ± 4.1
x2 = 0.4109	818.21 ± 2	813.799 ± 2	809.136 ± 2	804.737 ± 2	800.073 ± 2	1251.4 ± 4.1	1229.9 ± 4.1	1207.8 ± 4.1	1187.2 ± 4.1	1167.2 ± 4.1
x2 = 0.5032	809.565 ± 2	805.278 ± 2	800.772 ± 2	796.389 ± 2	791.981 ± 2	1253.8 ± 4.1	1232.5 ± 4.1	1210.5 ± 4.1	1190.4 ± 4.1	1170 ± 4.1
x2 = 0.6202	799.842 ± 2	795.692 ± 2	791.362 ± 2	787.138 ± 2	782.852 ± 2	1255.6 ± 4.1	1235 ± 4.1	1214.6 ± 4.1	1194.1 ± 4.1	1174.1 ± 4.1
x2 = 0.7403	791.114 ± 2	787.079 ± 2	782.913 ± 2	778.804 ± 2	774.698 ± 2	1258.8 ± 4.1	1238.5 ± 4.1	1217.8 ± 4.1	1198.2 ± 4.1	1178.9 ± 4.1
x2 = 0.8105	786.994 ± 2	782.989 ± 2	778.908 ± 2	774.712 ± 2	770.827 ± 2	1259.7 ± 4	1240.2 ± 4	1219.9 ± 4	1201 ± 4	1181.2 ± 4
x2 = 0.9205	780.619 ± 2	776.717 ± 2	772.741 ± 2	768.959 ± 2	764.799 ± 2	1262.4 ± 4	1243.1 ± 4	1223 ± 4	1204.5 ± 4	1185.6 ± 4

CCCCN(CCCC)CCCC [tributylamine] + CCCCOC(C)=O
Conditions	mass density, 293.15 K [kg/m3]	mass density, 298.15 K [kg/m3]	mass density, 303.15 K [kg/m3]	mass density, 308.15 K [kg/m3]	mass density, 313.15 K [kg/m3]	speed of sound, 293.15 K [m/s]	speed of sound, 298.15 K [m/s]	speed of sound, 303.15 K [m/s]	speed of sound, 308.15 K [m/s]	speed of sound, 313.15 K [m/s]
x1 = 0.0535	870.397 ± 2	865.288 ± 2	860.118 ± 2	854.99 ± 2	849.73 ± 2	1214 ± 4	1193.8 ± 4	1175.2 ± 4	1156 ± 4	1132.7 ± 4
x1 = 0.11	859.603 ± 2	854.617 ± 2	849.591 ± 2	844.604 ± 2	839.544 ± 2	1217.1 ± 4	1196.9 ± 4	1178.2 ± 4	1158.9 ± 4	1135.7 ± 4
x1 = 0.2003	844.278 ± 2	839.544 ± 2	834.725 ± 2	829.963 ± 2	825.128 ± 2	1221.8 ± 4	1201.9 ± 4	1183.5 ± 4	1163.8 ± 4	1141.7 ± 4
x1 = 0.3239	827.789 ± 2	823.24 ± 2	818.635 ± 2	814.11 ± 2	809.428 ± 2	1228.3 ± 4	1208.9 ± 4	1189.5 ± 4	1170.4 ± 4	1148.8 ± 4
x1 = 0.4004	818.98 ± 2	814.604 ± 2	810.171 ± 2	805.768 ± 2	801.312 ± 2	1232.5 ± 4	1212.3 ± 4	1193.6 ± 4	1174.4 ± 4	1153.5 ± 4
x1 = 0.502	809.109 ± 2	804.828 ± 2	800.541 ± 2	796.282 ± 2	791.968 ± 2	1237.7 ± 4	1217.4 ± 4	1199.2 ± 4	1180.1 ± 4	1158.9 ± 4
x1 = 0.592	801.571 ± 2	797.439 ± 2	793.26 ± 2	789.105 ± 2	784.862 ± 2	1242.4 ± 4	1222.7 ± 4	1203.4 ± 4	1185.3 ± 4	1164.7 ± 4
x1 = 0.7201	792.16 ± 2	788.147 ± 2	784.362 ± 2	780.344 ± 2	775.931 ± 2	1249.1 ± 4	1229.7 ± 4	1210.9 ± 4	1192 ± 4	1171.8 ± 4
x1 = 0.8002	787.449 ± 2	783.513 ± 2	779.542 ± 2	775.588 ± 2	771.559 ± 2	1253.5 ± 4	1233.7 ± 4	1215 ± 4	1195.9 ± 4	1176.6 ± 4
x1 = 0.9065	781.614 ± 2	777.793 ± 2	773.938 ± 2	770.069 ± 2	766.156 ± 2	1259.1 ± 4	1240 ± 4	1220.6 ± 4	1201.7 ± 4	1183.1 ± 4
x1 = 1	777.006 ± 2	773.28 ± 2	769.552 ± 2	765.811 ± 2	762.061 ± 2	1264.2 ± 4	1245.2 ± 4	1226.2 ± 4	1207.4 ± 4	1188.8 ± 4
